Values joined by “and” are separate entries in the source; they are usually repeats but may differ in a detail not shown here. Equal entries are not always repeated.
What was measured:
NG4TL4 cells = test: Cellular uptake test (ratio of cell to medium); type: cell-based; conditions: 1, 2, 4 and 8 h
Procedure: (§1) 2×10^6 cells was inoculated in a 15 cm^2 dish containing 14 mL medium supplemented with 10% FBS. […] At specified time points (using I-131 tracer at 1, 2, 4 and 8_h), the cells on the dish was harvested by using a cell scraper. Then, a cell suspension was transferred to a 15 mL centrifuge tube and centrifuged (at 3500 rpm) for 2 min. After centrifugation, 100 μL centrifugate was collected to a preweighed counting tube and directly poured into a maintained medium. Cell pellets were frozen with dry ice, and further collected into another weighed counting tube. […] Accumulation of activity of radioactive trancer in cell in vitro is represented by a radio of cell to medium:
(§2) Uptake experimental results of the two radioactive nucleoside analogues [^131I]IUdR and [^131I]ICdR in cells are as shown in FIGS. 4((a), (b)).

LL/2 cells = test: Cellular uptake test (ratio of cell to medium); type: cell-based; conditions: 1, 2, 4 and 8 h
Procedure: as §1, §2

[1] = Analysis of metabolites in blood and urine through NP-TLC; type: in vivo, FVB/N mice; conditions: NP-TLC EA/EtOH = 5/1
Procedure: Blood samples were obtained by heart puncture, and then centrifuged at 13,000 rpm for 10 min. Then, the supernatant (about 300 μL) was placed in a 1.5 mL centrifuge tube containing equal amount of ethanol, and then centrifuged again to obtain the serum.

[2] = mouse, in vivo, iv
NG4TL4 sarcoma cells = test: Study on incorporation in DNA; type: cell-based; conditions: 1 μCi/mL medium, 0.5-8 h
Procedure: DNA was extracted with Genomic DNA Mini Kit (Geneaid Biotech Ltd., Taiwan). NG4TL4 cell lines were harvested and inoculated into a petri dish at 2×10^6. […] At 0.5, 1, 2, 4 and 8 h after incubation, the medium was removed, and the cells was washed two times with ice-cold PBS, and then sheared with trypsin and collected to a centrifuge tube for centrifugation (at […] for 1 min). The supernatant was removed, while 50 μL remaining buffer was left to keep the cells in suspension. 300 μL cell lysis buffer was added to the sample and uniformly mixed, the cells was cultured in a water bath at 60° C. for a sereral minutes till the solution was transparent (the sample was inversed once every 3 min). 2 μL RNAse (25 mg/mL) was added to the sample and uniformly mixed, after 5-min incubation at room temperature, 100 μL protein removal buffer was added to the sample, uniformly mixed immediately, and centrifuged for 3 min at full speed (14000 rpm) after 5-min incubation on ice. The resulting solution was transferred as a suspension to another tube, and isopropanol was added and thoroughly mixed. […] In the test, DNA purity was determined at absorption wavelengths of 260 nm and 280 nm, and the ratio of absorbances (OD260/OD280) was about 1.7.

NG4TL4-WT tumor = test: Biodistribution study in tumor-bearing mice; type: in vivo, FVB/N mice; conditions: for Biodistribution Blood / Biodistribution Bone / Biodistribution Brain / Biodistribution Heart / Biodistribution Kidney / Biodistribution Large Intestine / Biodistribution Liver / Biodistribution Lung / Biodistribution Marrow / Biodistribution Muscle / Biodistribution Pancreas / Biodistribution Small Intestine / Biodistribution Spleen / Biodistribution Stomach / Biodistribution Tumor / T/B (aggregation ratio of tumor to blood) / T/M (tumor-muscle aggregation ratio): 80~90 μCi tail vein, FVB/N mice with NG4TL4-WT tumor
Description: […] Tumor and 13 other tissures (blood, heart, lung, liver, stomach, small intestine, large intestine, spleen, pancreas, kidney, bone, marrow, and muscle) were removed, rinsed, weighed, and determined for radioactivity with a γ scintilation counter. Uptake of the radioactive trancers in the tissues (counts per min) was calibrated against decay, normalizedto sample weight, and expressed as percentages of injected dosage per gram of tissue (% ID/g) and aggregation ratio of tumor to blood.

[3] = 0.25 h after ^131I-ICdR at tail vein
[4] = 1 h after ^131I-ICdR at tail vein
[5] = 2 h after ^131I-ICdR at tail vein

With `Nc1nc(=O)n([C@H]2C[C@H](O)[C@@H](CO)O2)cc1[131I]` [^131I-ICdR] the “uptake value over time” value (NG4TL4 cells) was “continuously increased with time”, the “uptake value over time” value (LL/2 cells) was “continuously increased with time” and the “^131I-ICdR (%) in Blood” value [1, 3] was 63.10 ± 1.17%. The “^131I-ICdR (%) in Urine” value [1, 3] was 56.49 ± 6.58%, the “^131I-IUdR (%) in Blood” value [1, 3] was 18.62 ± 2.25% and the “^131I-IUdR (%) in Urine” value [1, 3] was 3.19 ± 1.03%. The “^131I-I^- (%) in Blood” value [1, 3] was 18.28 ± 3.39%, the “^131I-I^- (%) in Urine” value [1, 3] was 40.32 ± 6.18% and the “^131I-compound (unknown) (%) in Blood” value [1, 3] was 0%. The “^131I-compound (unknown) (%) in Urine” value [1, 3] was 0%, the “^131I-ICdR (%) in Blood” value [1, 4] was 72.2% and 72.16 ± 3.66% and the “^131I-ICdR (%) in Urine” value [1, 4] was 71.0% and 71 + 0.26%. The “^131I-IUdR (%) in Blood” value [1, 4] was 0%, the “^131I-IUdR (%) in Urine” value [1, 4] was 0% and the “^131I-I^- (%) in Blood” value [1, 4] was 14.11 ± 6.15%. The “^131I-I^- (%) in Urine” value [1, 4] was 26.54 ± 0.34%, the “^131I-compound (unknown) (%) in Blood” value [1, 4] was 13.73 ± 1.38% and the “^131I-compound (unknown) (%) in Urine” value [1, 4] was 2.46 ± 0.08%. For the same molecule, the “^131I-ICdR (%) in Blood” value [1, 5] was 67.77 ± 7.33%, the “^131I-ICdR (%) in Urine” value [1, 5] was 81.1 ± 8.86% and the “^131I-IUdR (%) in Blood” value [1, 5] was 0%. For the same molecule, the “^131I-IUdR (%) in Urine” value [1, 5] was 0%, the “^131I-I^- (%) in Blood” value [1, 5] was 19 + 5.90% and the “^131I-I^- (%) in Urine” value [1, 5] was 15.37 ± 7.67%. The “^131I-compound (unknown) (%) in Blood” value [1, 5] was 13.23 ± 1.97%, the “^131I-compound (unknown) (%) in Urine” value [1, 5] was 3.53 ± 1.96% and the “CL (total body clearance)” value [2] was 3.90 ± 0.59 mL/h. For the same molecule, the “incorporation into cells / radioactive accumulation in DNA with time” value (NG4TL4 sarcoma cells) was “linearly incorporated”, the “Biodistribution Blood” value (NG4TL4-WT tumor; 1 h) was 6.21 ± 1.11 % ID/g and the “Biodistribution Bone” value (NG4TL4-WT tumor; 1 h) was 0.96 ± 0.13 % ID/g. The “Biodistribution Brain” value (NG4TL4-WT tumor; 1 h) was 0.25 ± 0.03 % ID/g, the “Biodistribution Heart” value (NG4TL4-WT tumor; 1 h) was 1.45 + 0.14 % ID/g and the “Biodistribution Kidney” value (NG4TL4-WT tumor; 1 h) was 3.96 ± 0.39 % ID/g. The “Biodistribution Large Intestine” value (NG4TL4-WT tumor; 1 h) was 2.92 ± 0.18 % ID/g, the “Biodistribution Liver” value (NG4TL4-WT tumor; 1 h) was 2.05 ± 0.20 % ID/g and the “Biodistribution Lung” value (NG4TL4-WT tumor; 1 h) was 3.52 ± 0.48 % ID/g. The “Biodistribution Marrow” value (NG4TL4-WT tumor; 1 h) was 3.29 ± 0.08 % ID/g, the “Biodistribution Muscle” value (NG4TL4-WT tumor; 1 h) was 0.85 ± 0.04 % ID/g and the “Biodistribution Pancreas” value (NG4TL4-WT tumor; 1 h) was 2.81 ± 0.42 % ID/g. The “Biodistribution Small Intestine” value (NG4TL4-WT tumor; 1 h) was 4.79 ± 0.41 % ID/g, the “Biodistribution Spleen” value (NG4TL4-WT tumor; 1 h) was 4.03 ± 0.55 % ID/g and the “Biodistribution Stomach” value (NG4TL4-WT tumor; 1 h) was 17.07 + % ID/g. For the same molecule, the “Biodistribution Tumor” value (NG4TL4-WT tumor; 1 h) was 3.46 ± 0.07 % ID/g, the “T/B (aggregation ratio of tumor to blood)” value (NG4TL4-WT tumor; 1 h) was 0.56 and the “T/M (tumor-muscle aggregation ratio)” value (NG4TL4-WT tumor; 1 h) was 4.07. The “Biodistribution Blood” value (NG4TL4-WT tumor; 2 h) was 3.76 ± 0.13 % ID/g, the “Biodistribution Bone” value (NG4TL4-WT tumor; 2 h) was 0.71 ± 0.19 % ID/g and the “Biodistribution Brain” value (NG4TL4-WT tumor; 2 h) was 0.15 ± 0.03 % ID/g. For the same molecule, the “Biodistribution Heart” value (NG4TL4-WT tumor; 2 h) was 1.14 + 0.01 % ID/g, the “Biodistribution Kidney” value (NG4TL4-WT tumor; 2 h) was 2.36 ± 0.06 % ID/g and the “Biodistribution Large Intestine” value (NG4TL4-WT tumor; 2 h) was 2.54 ± 0.33 % ID/g. For the same molecule, the “Biodistribution Liver” value (NG4TL4-WT tumor; 2 h) was 1.43 ± 0.09 % ID/g, the “Biodistribution Lung” value (NG4TL4-WT tumor; 2 h) was 2.72 ± 0.17 % ID/g and the “Biodistribution Marrow” value (NG4TL4-WT tumor; 2 h) was 3.58 ± 1.12 % ID/g. The “Biodistribution Muscle” value (NG4TL4-WT tumor; 2 h) was 0.61 ± 0.05 % ID/g, the “Biodistribution Pancreas” value (NG4TL4-WT tumor; 2 h) was 2.08 ± 0.08 % ID/g and the “Biodistribution Small Intestine” value (NG4TL4-WT tumor; 2 h) was 4.79 ± 0.45 % ID/g. For the same molecule, the “Biodistribution Spleen” value (NG4TL4-WT tumor; 2 h) was 3.07 ± 0.09 % ID/g, the “Biodistribution Stomach” value (NG4TL4-WT tumor; 2 h) was 14.99 ± 4.04 % ID/g and the “Biodistribution Tumor” value (NG4TL4-WT tumor; 2 h) was 3.78 ± 0.07 % ID/g. The “T/B (aggregation ratio of tumor to blood)” value (NG4TL4-WT tumor; 2 h) was 1.00, the “T/M (tumor-muscle aggregation ratio)” value (NG4TL4-WT tumor; 2 h) was 6.16 and the “Biodistribution Blood” value (NG4TL4-WT tumor; 4 h) was 3.40 ± 0.15 % ID/g. For the same molecule, the “Biodistribution Bone” value (NG4TL4-WT tumor; 4 h) was 0.77 ± 0.07 % ID/g, the “Biodistribution Brain” value (NG4TL4-WT tumor; 4 h) was 0.12 ± 0.02 % ID/g and the “Biodistribution Heart” value (NG4TL4-WT tumor; 4 h) was 0.84 + 0.07 % ID/g. For the same molecule, the “Biodistribution Kidney” value (NG4TL4-WT tumor; 4 h) was 2.07 ± 0.10 % ID/g, the “Biodistribution Large Intestine” value (NG4TL4-WT tumor; 4 h) was 2.88 ± 0.21 % ID/g and the “Biodistribution Liver” value (NG4TL4-WT tumor; 4 h) was 0.85 ± 0.01 % ID/g. For the same molecule, the “Biodistribution Lung” value (NG4TL4-WT tumor; 4 h) was 2.28 ± 0.12 % ID/g, the “Biodistribution Marrow” value (NG4TL4-WT tumor; 4 h) was 3.82 ± 0.54 % ID/g and the “Biodistribution Muscle” value (NG4TL4-WT tumor; 4 h) was 0.51 ± 0.04 % ID/g. For the same molecule, the “Biodistribution Pancreas” value (NG4TL4-WT tumor; 4 h) was 2.09 ± 0.13 % ID/g, the “Biodistribution Small Intestine” value (NG4TL4-WT tumor; 4 h) was 5.27 ± 0.39 % ID/g and the “Biodistribution Spleen” value (NG4TL4-WT tumor; 4 h) was 2.88 ± 0.13 % ID/g. For the same molecule, the “Biodistribution Stomach” value (NG4TL4-WT tumor; 4 h) was 17.68 ± 0.74 % ID/g, the “Biodistribution Tumor” value (NG4TL4-WT tumor; 4 h) was 4.85 ± 0.17 % ID/g and the “T/B (aggregation ratio of tumor to blood)” value (NG4TL4-WT tumor; 4 h) was 1.43. The “T/M (tumor-muscle aggregation ratio)” value (NG4TL4-WT tumor; 4 h) was 9.59, the “Biodistribution Blood” value (NG4TL4-WT tumor; 8 h) was 0.77 ± 0.10 % ID/g and the “Biodistribution Bone” value (NG4TL4-WT tumor; 8 h) was 0.11 ± 0.02 % ID/g. For the same molecule, the “Biodistribution Brain” value (NG4TL4-WT tumor; 8 h) was 0.01 ± 0.00 % ID/g, the “Biodistribution Heart” value (NG4TL4-WT tumor; 8 h) was 0.19 + 0.03 % ID/g and the “Biodistribution Kidney” value (NG4TL4-WT tumor; 8 h) was 0.75 ± 0.02 % ID/g. The “Biodistribution Large Intestine” value (NG4TL4-WT tumor; 8 h) was 1.33 ± 0.06 % ID/g, the “Biodistribution Liver” value (NG4TL4-WT tumor; 8 h) was 0.38 ± 0.02 % ID/g and the “Biodistribution Lung” value (NG4TL4-WT tumor; 8 h) was 0.69 ± 0.16 % ID/g. For the same molecule, the “Biodistribution Marrow” value (NG4TL4-WT tumor; 8 h) was 2.31 ± 0.10 % ID/g, the “Biodistribution Muscle” value (NG4TL4-WT tumor; 8 h) was 0.09 ± 0.01 % ID/g and the “Biodistribution Pancreas” value (NG4TL4-WT tumor; 8 h) was 0.38 ± 0.05 % ID/g. The “Biodistribution Small Intestine” value (NG4TL4-WT tumor; 8 h) was 2.06 ± 0.13 % ID/g, the “Biodistribution Spleen” value (NG4TL4-WT tumor; 8 h) was 2.77 ± 0.09 % ID/g and the “Biodistribution Stomach” value (NG4TL4-WT tumor; 8 h) was 2.85 ± 0.61 % ID/g. For the same molecule, the “Biodistribution Tumor” value (NG4TL4-WT tumor; 8 h) was 2.32 ± 0.27 % ID/g, the “T/B (aggregation ratio of tumor to blood)” value (NG4TL4-WT tumor; 8 h) was 3.02 and the “T/M (tumor-muscle aggregation ratio)” value (NG4TL4-WT tumor; 8 h) was 25.77. For the same molecule, the “excretion of drug and metabolites” value (NG4TL4-WT tumor; mice) was “mainly through the urinary system” and the “accumulation in organs (biodistribution and imaging)” value (NG4TL4-WT tumor; tumor-bearing mice) was “obviously accumulated in organs that rapidly proliferates”.

Reference: US20140221639A1, “RADIOLABELED NUCLEOSIDE ANALOGUE, AND PREPARATION METHOD AND USE THEREOF” (Institute of Nuclear Energy Research Atomic Energy Council, …, priority 2011, published 2014)
